Reference: ChEMBL document CHEMBL4665820, “Discovery of VU6027459: A First-in-Class Selective and CNS Penetrant mGlu Positive Allosteric Modulator Tool Compound” (ACS Med Chem Lett, 2020)
The source made the active and inactive calls. No cut-off for these calls is given here.

Columns and labels:
[1] = target: Beta-1 adrenergic receptor (Homo sapiens) (UniProt P08588); experiment: Displacement of [3H](-)CGP 12177 from human beta1 adrenoceptor at 10 uM after 60 mins by scintillation counting analysis relative to control
[2] = target: Beta-2 adrenergic receptor (Homo sapiens) (UniProt P07550); experiment: Displacement of [3H]-(-)CGP 12177 from human recombinant adrenergic beta 2 receptor at 10 uM incubated for 120 mins by scintillation counting analysis relative to control
[3] = target: D(1A) dopamine receptor (Homo sapiens) (UniProt P21728); experiment: Displacement of [3H]-SCH 23390 from human recombinant dopamine D1 receptor at 10 uM by scintillation counting 60 mins analysis relative to control
[4] = target: Glutamate NMDA receptor (Rattus norvegicus) (UniProt P35439+Q00959+Q00960+Q00961+Q62645+Q8VHN2+Q9R1M7); experiment: Displacement of [3H]-CGP39653 from NMDA glutamate receptor in rat at 10 uM incubated for 20 mins by scintillation counting analysis relative to control
Rattus norvegicus [5] = organism: Rattus norvegicus; experiment: Displacement of [3H]-MDL105519 from NMDA glutamate receptor glycine binding site in rat at 10 uM incubated for 30 mins by scintillation counting analysis relative to control
Rattus norvegicus [6] = organism: Rattus norvegicus; experiment: Displacement of [3H]-TCP from NMDA glutamate receptor phencyclidine binding site in rat at 10 uM incubated for 45 mins by scintillation counting analysis relative to control
[7] = target: Neuropeptide Y receptor type 2 (Homo sapiens) (UniProt P49146); experiment: Displacement of [125I]peptide YY from human Y2 receptor at 10 uM after 120 mins by scintillation counting analysis relative to control
[8] = target: Delta-type opioid receptor (Homo sapiens) (UniProt P41143); experiment: Displacement of [3H]DADLE from human recombinant Delta opioid receptor at 10 uM after 60 mins by scintillation counting analysis relative to control
[9] = target: Sodium-dependent serotonin transporter (Homo sapiens) (UniProt P31645); experiment: Displacement of [3H]-imipramine from recombinant human 5-HT transporter at 10 uM after 60 mins by scintillation counting relative to control
[10] = Hepatic intrinsic clearance in rat liver microsomes at 1 uM preincubated for 5 mins followed by NADPH addition and measured up to 45 mins by LC-MS/MS analysis; format: ADME, Microsome; conditions: read-out: CLH
[11] = Hepatic intrinsic clearance in mouse liver microsomes at 1 uM preincubated for 5 mins followed by NADPH addition and measured up to 45 mins by LC-MS/MS analysis; format: ADME, Microsome; conditions: read-out: CLH
[12] = target: Metabotropic glutamate receptor 7 (Homo sapiens) (UniProt Q14831); experiment: Agonist activity at human mGlu7 receptor; conditions: tested as the 2H-labelled form
[13] = target: Metabotropic glutamate receptor 7 (Homo sapiens) (UniProt Q14831); experiment: Positive allosteric modulation of human mGlu7 receptor; conditions: filed as positive allosteric modulator; tested as the 2H-labelled form
[14] = target: Metabotropic glutamate receptor 7 (Rattus norvegicus, UniProt P35400); experiment: Positive allosteric modulation of rat mGlu7 expressed in HEK293 cells co- expressing GIRK assessed as potentiation of L-AP4-induced thallium flux incubated for 140 sec by FluoZin2-AM dye based fluorescence analysis; format: cell-based
[15] = Plasma clearance in Sprague-Dawley rat at 0.2 to 0.25 mg/kg, iv measured upto 24 hrs by LC/MS/MS analysis; format: ADME, organism-based; conditions: dose 0.2-0.25 mg/kg
[16] = Half-life in Sprague-Dawley rat at 0.2 to 0.25 mg/kg, iv measured upto 24 hrs by LC/MS/MS analysis; format: ADME, organism-based; conditions: in vivo, dose 0.2-0.25 mg/kg
[17] = Volume of distribution at steady state in Sprague-Dawley rat at 0.2 to 0.25 mg/kg, iv measured upto 24 hrs by LC/MS/MS analysis; format: ADME, organism-based; conditions: in vivo, dose 0.2-0.25 mg/kg, read-out: Vdss
hERG (KCNH2) = hERG (KCNH2) (Homo sapiens, UniProt Q12809); experiment: Displacement of [3H]-Astemizole from human recombinant full length ERG channel at 10 uM incubated for 60 mins by scintillation counting analysis relative to control; conditions: probe [3H]-astemizole
[18] = target: dopamine transporter (DAT) (Homo sapiens, UniProt Q01959); experiment: Displacement of […] from recombinant human Dopamine transporter at 10 uM after 120 mins by scintillation counting analysis relative to control; format: ADME
dopamine transporter (DAT), sequence (Q01959 whole entry): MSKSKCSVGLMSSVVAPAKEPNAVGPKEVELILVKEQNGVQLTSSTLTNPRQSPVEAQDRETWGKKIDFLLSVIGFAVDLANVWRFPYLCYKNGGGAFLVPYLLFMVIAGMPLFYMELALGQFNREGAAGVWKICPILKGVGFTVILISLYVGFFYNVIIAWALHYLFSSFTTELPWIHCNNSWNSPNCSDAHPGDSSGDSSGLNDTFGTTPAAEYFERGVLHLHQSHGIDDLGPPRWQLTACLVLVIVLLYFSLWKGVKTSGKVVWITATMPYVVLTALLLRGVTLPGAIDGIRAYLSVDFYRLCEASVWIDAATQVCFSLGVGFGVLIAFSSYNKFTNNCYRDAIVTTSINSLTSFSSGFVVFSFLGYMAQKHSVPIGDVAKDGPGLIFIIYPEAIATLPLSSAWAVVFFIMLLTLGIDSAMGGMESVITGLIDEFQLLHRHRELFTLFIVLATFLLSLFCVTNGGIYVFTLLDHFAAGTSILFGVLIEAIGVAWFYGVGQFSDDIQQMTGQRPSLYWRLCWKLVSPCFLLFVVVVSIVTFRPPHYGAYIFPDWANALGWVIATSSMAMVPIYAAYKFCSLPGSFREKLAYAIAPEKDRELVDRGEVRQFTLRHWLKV

Delta-type opioid receptor (Homo sapiens), sequence (P41143 whole entry): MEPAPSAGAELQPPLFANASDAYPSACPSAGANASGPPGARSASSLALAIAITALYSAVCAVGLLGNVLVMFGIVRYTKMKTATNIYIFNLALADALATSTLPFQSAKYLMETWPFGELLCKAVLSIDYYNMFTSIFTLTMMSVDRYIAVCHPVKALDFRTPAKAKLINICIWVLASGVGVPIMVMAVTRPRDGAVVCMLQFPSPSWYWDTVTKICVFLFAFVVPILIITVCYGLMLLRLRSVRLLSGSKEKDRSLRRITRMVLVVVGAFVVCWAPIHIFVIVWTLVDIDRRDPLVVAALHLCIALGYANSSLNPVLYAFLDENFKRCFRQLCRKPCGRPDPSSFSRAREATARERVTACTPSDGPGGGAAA
Neuropeptide Y receptor type 2 (Homo sapiens), sequence (P49146 whole entry): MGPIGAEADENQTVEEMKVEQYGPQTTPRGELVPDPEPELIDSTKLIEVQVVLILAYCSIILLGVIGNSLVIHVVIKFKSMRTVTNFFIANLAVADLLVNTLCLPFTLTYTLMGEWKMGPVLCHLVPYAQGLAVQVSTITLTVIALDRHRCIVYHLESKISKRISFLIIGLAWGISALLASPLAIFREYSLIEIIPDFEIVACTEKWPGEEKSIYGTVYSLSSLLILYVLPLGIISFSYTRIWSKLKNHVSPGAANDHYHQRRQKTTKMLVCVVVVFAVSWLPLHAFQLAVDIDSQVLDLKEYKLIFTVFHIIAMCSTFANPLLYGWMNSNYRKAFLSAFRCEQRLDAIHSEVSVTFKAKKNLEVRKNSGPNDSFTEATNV
Metabotropic glutamate receptor 7 (Homo sapiens), sequence (Q14831 whole entry): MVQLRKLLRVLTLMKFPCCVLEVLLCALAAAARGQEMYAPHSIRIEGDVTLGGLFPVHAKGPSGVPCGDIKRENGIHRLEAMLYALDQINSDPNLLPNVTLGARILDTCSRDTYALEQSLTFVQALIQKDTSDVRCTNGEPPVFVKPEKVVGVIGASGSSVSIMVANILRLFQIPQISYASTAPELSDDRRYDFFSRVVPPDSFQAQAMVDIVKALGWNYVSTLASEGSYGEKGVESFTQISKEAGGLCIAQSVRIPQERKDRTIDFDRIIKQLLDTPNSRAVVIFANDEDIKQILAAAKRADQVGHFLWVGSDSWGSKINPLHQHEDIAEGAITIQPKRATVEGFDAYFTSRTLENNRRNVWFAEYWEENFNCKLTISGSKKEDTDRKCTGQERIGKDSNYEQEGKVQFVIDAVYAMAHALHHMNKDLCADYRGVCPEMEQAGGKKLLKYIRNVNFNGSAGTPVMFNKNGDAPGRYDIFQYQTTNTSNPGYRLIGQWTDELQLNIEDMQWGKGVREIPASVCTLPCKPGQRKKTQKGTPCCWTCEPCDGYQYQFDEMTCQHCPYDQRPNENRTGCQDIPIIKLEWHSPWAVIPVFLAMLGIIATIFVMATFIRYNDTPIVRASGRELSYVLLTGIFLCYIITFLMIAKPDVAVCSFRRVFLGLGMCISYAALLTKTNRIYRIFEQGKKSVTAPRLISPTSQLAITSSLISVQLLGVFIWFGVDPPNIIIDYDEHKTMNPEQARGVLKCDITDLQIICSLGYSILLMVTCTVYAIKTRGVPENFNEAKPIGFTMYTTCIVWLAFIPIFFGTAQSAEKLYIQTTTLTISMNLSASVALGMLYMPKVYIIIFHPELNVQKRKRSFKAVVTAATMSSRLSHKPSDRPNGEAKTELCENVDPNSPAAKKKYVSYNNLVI
Beta-2 adrenergic receptor (Homo sapiens), sequence (P07550 whole entry, looked up): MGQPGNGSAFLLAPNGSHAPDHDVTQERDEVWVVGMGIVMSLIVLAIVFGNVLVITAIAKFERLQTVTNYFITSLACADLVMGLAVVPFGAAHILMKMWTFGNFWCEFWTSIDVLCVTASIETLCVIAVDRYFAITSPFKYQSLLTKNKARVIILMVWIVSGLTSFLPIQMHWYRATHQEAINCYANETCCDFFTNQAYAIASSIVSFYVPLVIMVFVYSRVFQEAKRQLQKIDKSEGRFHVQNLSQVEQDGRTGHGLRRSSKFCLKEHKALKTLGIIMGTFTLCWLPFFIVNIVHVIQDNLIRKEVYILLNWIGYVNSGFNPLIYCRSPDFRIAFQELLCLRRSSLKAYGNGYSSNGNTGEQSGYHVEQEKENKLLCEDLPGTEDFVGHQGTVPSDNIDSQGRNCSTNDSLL
D(1A) dopamine receptor (Homo sapiens), sequence (P21728 whole entry): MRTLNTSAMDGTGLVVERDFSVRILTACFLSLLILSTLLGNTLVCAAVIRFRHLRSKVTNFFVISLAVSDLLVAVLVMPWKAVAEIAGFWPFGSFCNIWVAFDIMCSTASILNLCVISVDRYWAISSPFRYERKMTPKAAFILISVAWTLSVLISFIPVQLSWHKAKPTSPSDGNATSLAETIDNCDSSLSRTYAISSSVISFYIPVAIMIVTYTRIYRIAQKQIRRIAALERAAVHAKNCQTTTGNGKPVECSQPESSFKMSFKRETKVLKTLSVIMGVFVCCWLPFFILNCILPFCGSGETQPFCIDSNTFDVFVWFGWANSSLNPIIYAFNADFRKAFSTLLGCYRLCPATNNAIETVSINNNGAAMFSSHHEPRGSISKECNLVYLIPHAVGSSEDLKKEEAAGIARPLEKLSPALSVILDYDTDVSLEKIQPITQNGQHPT
Beta-1 adrenergic receptor (Homo sapiens), sequence (P08588 whole entry, looked up): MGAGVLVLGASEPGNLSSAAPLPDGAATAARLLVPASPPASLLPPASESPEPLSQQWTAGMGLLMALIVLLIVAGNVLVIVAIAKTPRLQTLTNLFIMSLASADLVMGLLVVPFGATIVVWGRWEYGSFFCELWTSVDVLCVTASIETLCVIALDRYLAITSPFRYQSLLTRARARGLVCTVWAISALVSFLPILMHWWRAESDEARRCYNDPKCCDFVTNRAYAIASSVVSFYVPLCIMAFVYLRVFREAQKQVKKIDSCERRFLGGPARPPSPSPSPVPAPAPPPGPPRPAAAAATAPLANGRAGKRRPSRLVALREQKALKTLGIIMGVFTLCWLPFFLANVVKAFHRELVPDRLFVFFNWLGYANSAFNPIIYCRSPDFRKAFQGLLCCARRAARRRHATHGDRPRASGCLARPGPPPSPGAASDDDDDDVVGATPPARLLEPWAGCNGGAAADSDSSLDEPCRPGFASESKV
Sodium-dependent serotonin transporter (Homo sapiens), sequence (P31645 whole entry, looked up): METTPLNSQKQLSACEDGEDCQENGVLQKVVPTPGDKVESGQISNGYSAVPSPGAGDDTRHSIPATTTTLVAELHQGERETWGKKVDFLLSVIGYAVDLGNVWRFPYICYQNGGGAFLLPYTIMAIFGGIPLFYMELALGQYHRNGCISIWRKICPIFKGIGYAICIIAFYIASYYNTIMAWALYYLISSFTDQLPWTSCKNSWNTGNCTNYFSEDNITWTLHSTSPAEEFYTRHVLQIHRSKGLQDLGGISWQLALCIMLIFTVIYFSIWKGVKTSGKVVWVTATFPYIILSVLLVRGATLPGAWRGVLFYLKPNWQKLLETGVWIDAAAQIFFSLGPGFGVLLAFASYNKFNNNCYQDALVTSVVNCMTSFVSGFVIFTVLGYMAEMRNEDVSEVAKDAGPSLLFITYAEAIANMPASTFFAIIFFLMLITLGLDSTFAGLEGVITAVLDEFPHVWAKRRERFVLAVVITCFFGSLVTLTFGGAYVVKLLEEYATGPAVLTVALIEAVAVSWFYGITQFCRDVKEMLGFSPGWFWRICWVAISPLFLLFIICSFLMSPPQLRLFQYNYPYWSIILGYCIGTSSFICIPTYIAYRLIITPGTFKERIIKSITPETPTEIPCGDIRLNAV
Metabotropic glutamate receptor 7, sequence (P35400 whole entry): as the sequence (Q14831 whole entry) above, with R5G, A27V, N454H, S488T, A520S, D578N counted along it

Structure (SMILES): COc1cc(F)cc2c(N3CCN(c4ccccc4F)CC3)c(C#N)cnc12
- inhibition ([1]; tested as the 2H-labelled form): < 50%
- inhibition ([2]; tested as the 2H-labelled form): < 50%
- inhibition ([3]; tested as the 2H-labelled form): < 50%
- inhibition ([4]; tested as the 2H-labelled form): < 50%
- inhibition (Rattus norvegicus [5]; tested as the 2H-labelled form): < 50%
- inhibition (Rattus norvegicus [6]; tested as the 2H-labelled form): < 50%
- inhibition ([7]; tested as the 2H-labelled form): < 50%
- inhibition ([8]; tested as the 2H-labelled form): < 50%
- inhibition ([9]; tested as the 2H-labelled form): < 50%
- CLint scaled at 1 µM [10]: 56 mL/min/kg
- CLint scaled at 1 µM [11]: 87 mL/min/kg
- Activity [12]: inactive
- Activity [13]: Active

Structure (SMILES): COc1cccc2c(N3CCN(c4ccccc4F)CC3)c(C#N)cnc12
- EC50 [14]: 879 nM
- clearance [15]: 47.5 mL/min/kg
- half-life [16]: 45 min
- Vd [17]: 4.1 L/kg
- inhibition [1]: < 50%
- inhibition [2]: < 50%
- inhibition [3]: < 50%
- inhibition [4]: < 50%
- inhibition (Rattus norvegicus [5]): < 50%
- inhibition (Rattus norvegicus [6]): < 50%
- inhibition [7]: < 50%
- inhibition [8]: < 50%
- inhibition at 1 h, 10 µM (hERG (KCNH2)): < 50%
- inhibition at 2 h, 10 µM [18]: 85%
- inhibition [9]: < 50%
